Source: PMC4666608, “Metabolic Profiling of Chicken Embryos Exposed to Perfluorooctanoic Acid (PFOA) and Agonists to Peroxisome Proliferator-Activated Receptors” (PLoS ONE, 2015)
Several values for one entry are separate records, joined by “and”; a condition that tells them apart may be missing. Equal entries are not always repeated. Where two headings read alike, the source gives them in different places.

Columns and labels:
[1] = Determination of PFOA in blood plasma (UPLC-MS/MS); type: in vivo, Gallus gallus domesticus; settings: E12; for concentration at 5 d: chicken, plasma, other: air sac injection in ovo
Procedure: (§1) Controls were injected with 20 μL vehicle only (DMSO).
Plasma was collected and stored at -70°C.
(§2) The concentration of PFOA was analyzed in liver and blood plasma from control embryos and embryos exposed to PFOA (50, 250 and 1000 μg/egg). Five individual livers from each PFOA-treated group were analyzed. Very low PFOA concentrations were anticipated in the controls and therefore the amount of tissue was increased by pooling 2–3 livers, and five such pools were analyzed. Four plasma samples (50 μL) were analyzed from each group except the group exposed to 1000 μg PFOA/egg for which three samples were analyzed. Extraction blanks were included for each batch. The analyzed amount of liver homogenate was 100 mg for controls and 50 mg for PFOA-exposed embryos. Livers were homogenized using the bead mill Bullet Blender® Storm 24 (Next Advance, Inc. New York, USA) with stainless steel beads at speed 8 for 3 min. Plasma and liver samples were spiked with 50 ng of internal standard (^13C4-PFOA, Wellington, Guelph, Canada). Five milliliters of acetonitrile (Labscan, Gliwice, Poland) was added to the samples followed by vortex mixing, sonication (20 min), and centrifugation (10 000 g, 5 min). Extraction was performed twice for livers and once for plasma. One mL of supernatant from the extracts was transferred to a tube prepared with 50 mg ENVI-Carb™ 20/400 mesh (Supelco, Bellefonte, PA, USA) and 100 μL glacial acetic acid (Sigma-Aldrich). The carbon suspension was vortex mixed and then filtrated using a 0.2-μm GHP filter (Pall, East Hills, NY, USA). Filtrate (0.4 mL) was mixed with 2 ng of the recovery standard (^13C8-PFOA, Wellington Laboratories) and 0.6 mL 2 mM ammonium acetate was added. Analysis was performed using an Acquity UPLC coupled to a Xevo-TQS MS/MS (Waters Corporation, Milford, MA, USA) as described previously. The recovery standard ^13C8-PFOA was added before injection to assess the recoveries of the internal standard ^13C4-PFOA. The recoveries ranged between 75 and 94% (average 82%) for plasma and between 64 and 119% (average 84%) for liver.

[2] = Determination of PFOA in liver (UPLC-MS/MS); type: in vivo, Gallus gallus domesticus; settings: for concentration at 5 days: chicken (Gallus gallus domesticus) embryo, other: air sac injection into the egg, 1000 µg/egg; for concentration at 5 days / concentration at 5 d: liver; for concentration at 5 d: chicken, other: air sac injection in ovo
Procedure: as §1, §2

## O=C(O)C(F)(F)C(F)(F)C(F)(F)C(F)(F)C(F)(F)C(F)(F)C(F)(F)F [PFOA, perfluorooctanoic acid]
[1]; PFOA 50 µg/egg, female embryos
  Concentration in plasma, individual embryo: 2453 ng/mL and 2350 ng/mL
[1]; PFOA 50 µg/egg, male embryos
  Concentration in plasma, individual embryo: 1759 ng/mL
[1]; PFOA 250 µg/egg, female embryos
  Concentration in plasma, individual embryo: 8562 ng/mL
[1]; PFOA 250 µg/egg, male embryos
  Concentration in plasma, individual embryo: 5531 ng/mL and 5643 ng/mL
[1]; PFOA 1000 µg/egg
  Concentration in plasma, individual embryo: 17963 ng/mL and 18228 ng/mL
[1]; 50 μg/egg, 50 μg PFOA/egg on E7, read-out: Mean PFOA concentration in plasma
  concentration at 5 d: 2000 ng/mL
[1]; 50 µg/egg, PFOA 50 µg/egg, read-out: Concentration in plasma, Mean
  concentration at 5 d: 2000 ng/mL
[1]; 50 µg/egg, PFOA 50 µg/egg, read-out: Concentration in plasma, individual embryo
  concentration at 5 d: 1440 ng/mL
[1]; 250 μg/egg, 250 μg PFOA/egg on E7, read-out: Mean PFOA concentration in plasma
  concentration at 5 d: 6300 ng/mL
[1]; 250 µg/egg, PFOA 250 µg/egg, read-out: Concentration in plasma, Mean
  concentration at 5 d: 6300 ng/mL
[1]; 250 µg/egg, PFOA 250 µg/egg, read-out: Concentration in plasma, individual embryo
  concentration at 5 d: 5480 ng/mL
[1]; 1000 μg/egg, 1000 μg PFOA/egg on E7, read-out: Mean PFOA concentration in plasma
  concentration at 5 d: 18000 ng/mL
[1]; 1000 µg/egg, PFOA 1000 µg/egg, read-out: Concentration in plasma, Mean
  concentration at 5 d: 17600 ng/mL
[1]; 1000 µg/egg, PFOA 1000 µg/egg, read-out: Concentration in plasma, individual embryo
  concentration at 5 d: 16700 ng/mL
[2]; PFOA 50 µg/egg, chicken embryo liver, individual embryos
  Concentration in liver: 1067 ng/g and 1343 ng/g and 1269 ng/g and 1059 ng/g
[2]; PFOA 250 µg/egg, chicken embryo liver, individual embryos
  Concentration in liver: 3843 ng/g and 2549 ng/g and 3327 ng/g and 3144 ng/g
[2]; PFOA 1000 µg/egg, chicken embryo liver, individual embryos
  Concentration in liver: 11372 ng/g and 14202 ng/g and 9187 ng/g and 10517 ng/g
[2]; PFOA 1000 µg/egg, chicken embryo liver, group mean (n=5), read-out: Concentration in liver, Mean
  concentration at 5 days: 10800 ng/g
[2]; PFOA 1000 µg/egg, chicken embryo liver, individual embryos, read-out: Concentration in liver
  concentration at 5 days: 8570 ng/g
[2]; 50 μg/egg, E12, 50 μg PFOA/egg on E7, read-out: Mean PFOA concentration in liver
  concentration at 5 d: 1100 ng/g
[2]; 50 µg/egg, PFOA 50 µg/egg, chicken embryo liver, group mean (n=5), read-out: Concentration in liver, Mean
  concentration at 5 d: 1180 ng/g
[2]; 50 µg/egg, PFOA 50 µg/egg, chicken embryo liver, individual embryos, read-out: Concentration in liver
  concentration at 5 d: 1170 ng/g
[2]; 250 μg/egg, E12, 250 μg PFOA/egg on E7, read-out: Mean PFOA concentration in liver
  concentration at 5 d: 3600 ng/g
[2]; 250 µg/egg, PFOA 250 µg/egg, chicken embryo liver, group mean (n=5), read-out: Concentration in liver, Mean
  concentration at 5 d: 3580 ng/g
[2]; 250 µg/egg, PFOA 250 µg/egg, chicken embryo liver, individual embryos, read-out: Concentration in liver
  concentration at 5 d: 5060 ng/g
[2]; 1000 μg/egg, E12, 1000 μg PFOA/egg on E7, read-out: Mean PFOA concentration in liver
  concentration at 5 d: 11000 ng/g
